Like-named read-outs stand apart in the source and are kept apart here.
What was measured:
[1] = no Na CPP
Description: Comparative in vitro experiments were carried out using a Seeded Crystal Growth Inhibition Assay. This assay involved the treatment of synthetic hydroxyapatite with the anti-tartar agent to be tested. The hydroxyapatite, treated with the anti-tartar agent was incubated at 37°C in a calcifying solution made up of calcium and phosphate at 1.5 mM and 4.5 mM respectively, pH 7.4. The samples were filtered to remove any calcium phosphate crystals and the free calcium in the filtrate was measured using Atomic Absorption Spectroscopy. The percent inhibition was calculated as follows: [formula]
The % inhibition is a measure of the degree of inhibition of calcium phosphate precipitation by the anti-tartar agent. The anti-tartar agents tested were: 1) tetrasodium pyrophosphate, Na₄P₂O₇ and 2) combinations of Na₄P₂O₇ and sodium caseinphosphopeptide, Na CPP, prepared as described above, which is a mixture rich in phosphopeptides of SEQ ID NO:1 and SEQ ID NO:2.
Experiments were carried out using a Seeded Crystal Growth Inhibition Assay described in Example 1. % inhibition was measured for NaCPP/Zinc sulphate mixtures.

[2] = system: Streptococcus sobrinus 6715-14; conditions: 1.5% pyrophosphate anion; versus deionized water control
Description: A Microbial Mineralization Assay was carried out. Standard glass rods (3mm x 50mm) were attached to a circular piece of rubber and attached to a vial cap. The surface of the rods was etched. The rods were placed in a growth medium containing sucrose and Streptococcus sobrinus 6715-14. The microbe was grown on the rods for 24 hours at 37°C. The rods were then placed into a fresh growth medium for another 24 hours at 37°C. The rods were then taken out and treated with the anti-tartar agent to be tested. Treatment with only deionized water was used as control. The rods were then placed in a calcifying solution made up of a calcium and phosphate at levels of 1.5 mM and 5.0 mM respectively, at pH 7.4, supplemented with human saliva (about 25%). Six hours later, the treatment with the anti-tartar agent was repeated, and glass rods were placed in a calcifying solution. The procedure was continued for the next three days.
The rods were then removed from the calcifying solution, rinsed with water and placed in 0.6 N HCl solution. The solution containing the rods was heated at 60°C for 2 hours to dissolve calcified salts. The resulting acidic solution was filtered over 0.8 µm nylon membrane. The level of mineral formation was assessed via calcium and phosphorus analysis. The results were calculated by comparing the % reduction of mineral formation to that of the control.

| SMILES | % Inhibition ([1]; Na4 P2 O7 0.1 mM) [%] | % Inhibition ([1]; Na4 P2 O7 0.15 mM) [%] | % Inhibition ([1]; Na4 P2 O7 0.2 mM) [%] | % reduction of mineral formation [2] [%] |
| --- | --- | --- | --- | --- |
| O=P([O-])([O-])OP(=O)([O-])[O-].[Na+].[Na+].[Na+].[Na+] [Na4 P2 O7, tetrasodium pyrophosphate] | 14 | 24 | 54 | – |
| O=P(O)(O)OP(=O)(O)O [pyrophosphate anion] | – | – | – | 32 |
